US7030110B2, “Cyclic oxyguanidine pyrazinones as protease inhibitors” (Ortho-McNeil Pharmaceuticals, Inc., priority 2000, dated 2006)
Structures can show the parent of a compound that is named as a salt.

Target: T1, human α-thrombin (Homo sapiens, UniProt P00734)
T1 construct: Human α-thrombin, human factor Xa and human plasmin were obtained from Enzyme Research Laboratories; purchased Enzyme Research Laboratories (South Bend, Indiana)
Assay: In vitro inhibition of purified thrombin, Ki determination (p-nitroanilide substrate hydrolysis)
Type: biochemical
Details: purified human α-thrombin 0.5 nM; substrate N-succinyl-Ala-Ala-Pro-Arg-p-nitroanilide; 50 mM HEPES, 200 mM NaCl, pH 7.5; 37° C.
Text: Reagents: All buffer salts were obtained from Sigma Chemical Company (St. Louis, Mo.), and were of the highest purity available. The enzyme substrates, N-benzoyl-Phe-Val-Arg-p-nitroanilide (Sigma B7632), N-benzoyl-Ile-Glu-Gly-Arg-p-nitroanilide hydrochloride (Sigma B2291), N-p-Tosyl-Gly-Pro-Lys-p-nitroanilide (Sigma T6140), N-succinyl-Ala-Ala-Pro-Phe-p-nitroanilide (Sigma S7388) and N-CBZ-Val-Gly-Arg-p-nitroanilide (Sigma C7271) were obtained from Sigma. N-succinyl-Ala-Ala-Pro-Arg-p-nitroanilide (BACHEM L-1720) and N-succinyl-Ala-Ala-Pro-Val-p-nitroanilide (BACHEM L-1770) were obtained from BACHEM (King of Prussia, Pa.). […]
Ki Determinations: All assays are based on the ability of the test compound to inhibit the enzyme catalyzed hydrolysis of a peptide p-nitroanilide substrate. […] In general, substrate concentrations are lower than the experimentally determined value for Km. […]
In a typical K1 determination, into each well of a 96 well plate is pipetted […] of substrate solution, […] of test compound solution, and the plate allowed to thermally equilibrate at 37° C. in a Molecular Devices plate reader for >15 minutes. Reactions were initiated by the addition of a […] aliquot of enzyme and the absorbance increase at 405 nm is recorded for 15 minutes. […] The data are fit to a linear regression, and the value of the slope of the line calculated. […]

Row | Ki | Compound
1 | 0.6 to 1.3 nM | Cc1ccc(CCNc2ncc(C)n(CC(=O)NC3CCN(C(=N)N)OC3)c2=O)cc1 (centres unmarked) [Example 1, N-(2-Carbamimidoyl-[1,2]oxazinan-5-yl)-2-[6-methyl-2-oxo-3-(2-p-tolylethylamino)-2H-pyrazin-1-yl]-acetamide trifluoroacetate]
2 | 5 nM | Cc1cnc(NCC(F)(F)c2ccccc2)c(=O)n1CC(=O)NCC1CNC(=N)NO1 (centres unmarked) [Example 2, 2-[3-(2,2-Difluoro-2-phenylethylamino)-6-methyl-2-oxo-2H-pyrazin-1-yl]-N-(3-imino-[1,2,4]oxadiazinan-6-ylmethyl)-acetamide Trifluoroacetate]
